Assay results published in patent publication US12054495B2, “Substituted macrocyclic compounds and related methods of treatment” (Alkermes, Inc., priority 2019, dated 2024).
Where two headings read alike, the source gives them in different places.

Legend:
[1] = Hepatocytes stability assay (human hepatocytes); assay type: in vitro ADME; conditions: both sexes, cryopreserved hepatocytes, 1 μM test compound, 1×10^6 cell/mL, 37 degrees C, read-out: CLint (μL/min/million cells)
Description: (§1) In vitro metabolic stability was assessed using cryopreserved hepatocytes from male Sprague Dawley rats and a pool of 50 mixed gender humans (BioIVT, Baltimore, MD). The incubation mixtures were prepared by mixing 250 μL of pre-warmed KHB (Krebs-Henseleit buffer) containing 2×10^6 cell/mL of hepatocytes with 250 μL of pre-warmed KHB buffer containing 2 μM of test compounds in a 48-well plate, giving a final concentration of 1 μM test compound (0.1% DMSO) and 1×10^6 cell/mL of hepatocytes. The reaction mixture was incubated at 37 degrees C. A 50 μL aliquot of incubation mixture was taken at time points (0, 15, 30, 60, 120 and 240 minutes) and transferred into a 96-well plate containing 300 μL ice-cold acetonitrile (containing 30 ng/mL of labetalol and 10 ng/mL of Naltrexone-d3 as internal standards) and immediately placed in ice to terminate the reaction. Samples were centrifuged, and supernatants were transferred into 96-well plates for liquid chromatography with tandem mass spectrometry (LC-MS/MS) analysis to monitor the depletion of the test compound.
(§2) Data was calculated as percent remaining by assuming zero-minute time point peak area ratio (analyte/IS) as 100% and dividing remaining time point peak area ratios by zero-minute time point peak area ratio. Data were fitted to a first-order decay model to determine half-life. From a plot of log (ln) peak area against time, the slope of the line was determined. Subsequently, half-life (T1/2) and intrinsic clearance (CLint) were calculated using the equations below: Elimination rate constant (k)=(−slope) Half-life (T1/2)min=0.693/k Intrinsic Clearance (CLint) (mL/min/million cells)=(V×0.693)/T1/2 V=incubation volume mL/number of cells The in vitro T1/2 was converted to in vitro intrinsic clearance (CLint,hep) in units of mL/min/kg using the formula shown below:
(§3) [formula] The in vitro intrinsic clearance (CLint,hep) was scaled to in vivo hepatic clearance (CL,hep) using the following equation which was adapted from a well-stirred model.
(§4) [formula] where Q is the liver blood flow and fu is the fraction unbound (assumed to be unity in this case). All parameters used in the calculation are shown below (Table 4).
(§5) The extraction ratio (ER) was calculated by dividing the hepatic clearance of a compound to the liver blood flow. The data reported in Table 5 were obtained according to the human hepatocytes stability assay described above.

human hepatocytes = assay: Hepatocytes stability assay (human hepatocytes); assay type: in vitro ADME; conditions: scaled hepatic clearance divided by liver blood flow, fu assumed unity
Description: as §1, §2, §3, §4, §5

MDR1 = assay: MDCK-MDR1 permeability assay; assay type: in vitro ADME; conditions: dog; for Papp A→B at 2 h, 3 μM: MDCK-MDR1, MDCK-MDR1 cells, apical to basolateral, 3 μM test compound, 2 hours at 37 degrees C; for efflux ratio at 2 h, 3 μM: MDCK-MDR1, Papp (basolateral to apical) divided by Papp (apical to basolateral), MDCK-MDR1 cells, read-out: Efflux ratio (ER)
Description: The bidirectional permeability (Apical to Basal and Basal to Apical directions) of test compounds in MDCK-MIDR1 cells were evaluated using MDCK-MIDR1 cells seeded in Solvo PreadyPort™ MIDCK 96-well plate. Once the plate was received from ReadyCell (Barcelona, Spain), it was treated as per PreadyPort™ user's manual.
For the Apical to Basolateral (A→B) permeability, 80 μL of test compound (3 μM) co-dosed with LY (Lucifer Yellow) (100 μM) in HBSS (Hank's Balanced Salt Solution) assay buffer was added to the donor side (A) while 250 μL of HBSS buffer was added to the receiver side (B). For the Basolateral to Apical (B→A) permeability, 255 μL of test compound (3 μM) in HBSS assay buffer was added to the donor side (B) while 75 μL of HBSS buffer containing LY (100 μM) was added to the receiver side (A).
The plate was placed in an incubator set at 37 degrees C. After 10 minutes of pre-warming, 5 μL aliquot was taken from donor compartment and set aside as the dosing solution. The MDCK-MDR1 incubation plate was placed back into the incubator for 2 hours of incubation at 37 degrees C. After 2 hours of incubation, 25 μL and 5 μL aliquots were removed from the receiver and donor sides, respectively. To the 5 μL aliquots taken from the donor sides (before and after a 2-hour incubation) were diluted with 20 μL of the HBSS buffer. All samples were mixed with 150 μL with acetonitrile containing internal standard (IS) and 200 μL water, and analyzed by LC-MS/MS.
The apparent permeability (Papp) was calculated using the following formula: Papp=dQ/dt×1/A×C0 where: • dQ/dt: amount of translocated material over incubation time (nmol/s) • A: area of insert (0.14 cm^2 for PreadyPort™ MDR1-96) • C0: initial concentration of product applied in apical (A→B) or basal (B→A) compartment (nmol/mL)
The efflux ratio (ER) was measured by dividing the Papp (basolateral to apical direction) by Papp (apical to basolateral direction). It is a general measure of the involvement of active processes. An ER>2 is considered positive for active transport.
The data reported in Table 3 were obtained according to the MDCK-MIDR1 permeability assay described above.

[2] = target: T1, human orexin-2 receptor (OX2R) (Homo sapiens, UniProt O43614); assay: Human OX2R IP1 assay; assay type: cell-based; conditions: T-Rex CHO cells stably overexpressing human OX2R, IP1 accumulation, 1 hr at 37 degrees C; mean EC50; ∧ = racemic mixture
T1 construct: expressed in transfected cells
T1 sequence (O43614 1-444): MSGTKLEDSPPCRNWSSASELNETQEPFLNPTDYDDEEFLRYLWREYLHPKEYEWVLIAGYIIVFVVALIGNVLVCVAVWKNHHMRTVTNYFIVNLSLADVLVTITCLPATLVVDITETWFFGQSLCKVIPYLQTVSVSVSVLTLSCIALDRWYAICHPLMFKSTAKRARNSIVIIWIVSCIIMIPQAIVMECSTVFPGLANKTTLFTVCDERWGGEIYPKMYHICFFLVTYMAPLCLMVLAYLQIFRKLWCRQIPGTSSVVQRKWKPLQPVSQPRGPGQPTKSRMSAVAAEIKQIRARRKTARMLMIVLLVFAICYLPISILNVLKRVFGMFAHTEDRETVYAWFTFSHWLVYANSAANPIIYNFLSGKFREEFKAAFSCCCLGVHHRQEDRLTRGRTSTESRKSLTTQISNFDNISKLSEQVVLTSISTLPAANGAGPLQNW
Description: T-Rex CHO cells stably overexpressing the human orexin-2 receptor (OX2R) were induced overnight with 1 μg/mL of doxycycline in a T225 flask. 24 hours post induction, cells were lifted with accutase and plated into a 384-well proxy plate at 30,000 cells/well. Cells were then treated with different test compounds in 1× stimulation buffer containing 10 mM Hepes, 1 mM CaCl2), 0.5 mM MgCl2, 4.2 mM KCl, 146 mM NaCl, 5.5 mM glucose, and 50 mM LiCl, pH 7.4, for 1 hr at 37 degrees C. Following incubation, the reaction was terminated by the addition of detection mix, which is composed of IP1-d2 and anti-IP1-cryptate diluted in lysis buffer as well as 1× stimulation buffer. The plates were allowed to incubate for 1 hour at room temperature and were then read in the EnVision® multimode plate reader, measuring inositol phosphate levels.
Cisbio IP1 is a cell-based functional assay quantifying the accumulation of inositol monophosphate (IP), a metabolite released as a result of orexin 2 receptor activation through the phospholipase C-Gq signaling pathway. This is a competitive immunoassay in which the IP1 produced by the cells upon receptor activation competes with the IP1 analog coupled to the d2 fluorophore (acceptor) for binding to an anti-IP1 monoclonal antibody labeled with Eu cryptate (donor). The measured HTRF-FRET based signal is inversely proportional to the IP1 concentration produced.
The EC50 values reported in Table 2 were obtained according to the human OX2R IP1 assay described above. Data are the mean EC50 values ±S.E.M. The compound methyl (2R,3S)-3-((methylsulfonyl)amino)-2-(((cis-4-phenylcyclohexyl)oxy)methyl)-piperidine-1-carboxylate is a reference compound which is disclosed in Example 5 of PCT publication no. WO2017/135306.

[3] = amide bond, HATU/DIEA

Structure (SMILES)	hepatocyte CLint at 1 μM [1]	Extraction Ratio (ER) (human hepatocytes)	Papp A→B at 2 h, 3 μM (MDR1)	efflux ratio at 2 h, 3 μM (MDR1)	EC50 [2]	ring closure, isolated yield ([3]; from CC(C)(C)OC(=O)N[C@H]1CCCN[C@H]1COC1CCC(c2ccnnc2OCC(=O)O)CC1, 13-membered ring, MeCN, 0.94 mM, 25.0 °C, 2.0 h)	ring closure, isolated yield ([3]; from CC(C)(C)OC(=O)N[C@H]1CCCN[C@H]1COC1CC=C(c2c(F)cccc2OCC(=O)O)CC1, 13-membered ring, MeCN, 2.1 mM, 2.0 h)	ring closure, isolated yield ([3]; from CC(C)(C)OC(=O)N[C@H]1CCCN[C@H]1COC1CCC(c2ccccc2OCCCC(=O)O)CC1, 15-membered ring, MeCN/DMF 8:1, 18.1 mM, 2.0 h)	ring closure, isolated yield ([3]; from CC(C)(C)OC(=O)N([C@H]1CCN[C@H]1COC1CCC(c2ccccc2OCC(=O)O)CC1)S(C)(=O)=O, 13-membered ring, MeCN, 2.4 mM, 2.0 h)	ring closure, isolated yield ([3]; from CC(C)(C)OC(=O)N[C@H]1CCCN[C@H]1COC1CCC(c2nccnc2OCC(=O)O)CC1, 13-membered ring, MeCN, 2.16 mM, 1.0 h)
CS(=O)(=O)N[C@H]1CCCN2C(=O)COc3ccccc3C3CC[C@@H](CO3)OCC12 (some centres unmarked) [Compound 8]	5.8 µL/min/1e6 cells	0.46	0.48 ×10⁻⁶ cm/s	3.8	< 100 nM					
CC(C)(C)OC(=O)N[C@H]1CCCN2C(=O)COc3nnccc3C3CCC(CC3)OC[C@@H]12						76%				
CS(=O)(=O)N[C@H]1CCCN2C(=O)COc3ccccc3C3CC[C@H](CO3)OCC12 (some centres unmarked) [Compound 9]	6.7 µL/min/1e6 cells	0.50	0.45 ×10⁻⁶ cm/s	2.6	< 100 nM					
CC(C)(C)OC(=O)N[C@H]1CCCN2C(=O)COc3cccc(F)c3C3=CCC(CC3)OC[C@@H]12 (some centres unmarked)							71%			
CS(=O)(=O)N[C@@H]1CCCN2C(=O)COc3ccncc3[C@H]3CC[C@H](CC3)OC[C@H]12 (racemic) [Compound 45]	< 1.9 µL/min/1e6 cells	<0.22	0.15 ×10⁻⁶ cm/s	12	100 to 1000 nM					
CS(=O)(=O)N[C@@H]1CCCN2C(=O)COc3cccnc3[C@H]3CC[C@H](CC3)OC[C@H]12 (racemic) [Compound 15]	< 1.9 µL/min/1e6 cells	<0.22	0.08 ×10⁻⁶ cm/s	22	100 to 1000 nM					
CC(C)(C)OC(=O)N[C@H]1CCCN2C(=O)CCCOc3ccccc3C3CCC(CC3)OC[C@@H]12								77.9%		
CC(C)(C)OC(=O)N([C@H]1CCN2C(=O)COc3ccccc3C3CCC(CC3)OC[C@@H]12)S(C)(=O)=O									31%	
CS(=O)(=O)N[C@@H]1CCCN2C(=O)COc3cnccc3[C@H]3CC[C@H](CC3)OC[C@H]12 (racemic) [Compound 47]	3 µL/min/1e6 cells	0.31	0.09 ×10⁻⁶ cm/s	49	< 100 nM					
CC(C)(C)OC(=O)N[C@H]1CCCN2C(=O)COc3nccnc3C3CCC(CC3)OC[C@@H]12										42.1%
C[C@@H]1Oc2ccccc2C2CCC(CC2)OCC2[C@@H](NS(C)(=O)=O)CCCN2C1=O (some centres unmarked) [Compound 37]	30 µL/min/1e6 cells	0.82	0.91 ×10⁻⁶ cm/s	27	< 100 nM					
C[C@H]1Oc2ccccc2C2CCC(CC2)OCC2[C@@H](NS(C)(=O)=O)CCCN2C1=O (some centres unmarked) [Compound 38]	30 µL/min/1e6 cells	0.82	0.77 ×10⁻⁶ cm/s	18	< 100 nM					

Now from value to molecule, other results behind:

hepatocyte CLint at 1 μM [1]	Extraction Ratio (ER) (human hepatocytes)	Papp A→B at 2 h, 3 μM (MDR1)	efflux ratio at 2 h, 3 μM (MDR1)	EC50 [2]	Structure (SMILES)	ring closure, isolated yield ([3]; from CC(C)(C)OC(=O)N[C@H]1CCCN[C@H]1COC1CCC(c2ccnnc2OCC(=O)O)CC1, 13-membered ring, MeCN, 0.94 mM, 25.0 °C, 2.0 h)	ring closure, isolated yield ([3]; from CC(C)(C)OC(=O)N[C@H]1CCCN[C@H]1COC1CC=C(c2c(F)cccc2OCC(=O)O)CC1, 13-membered ring, MeCN, 2.1 mM, 2.0 h)	ring closure, isolated yield ([3]; from CC(C)(C)OC(=O)N[C@H]1CCCN[C@H]1COC1CCC(c2ccccc2OCCCC(=O)O)CC1, 15-membered ring, MeCN/DMF 8:1, 18.1 mM, 2.0 h)	ring closure, isolated yield ([3]; from CC(C)(C)OC(=O)N([C@H]1CCN[C@H]1COC1CCC(c2ccccc2OCC(=O)O)CC1)S(C)(=O)=O, 13-membered ring, MeCN, 2.4 mM, 2.0 h)	ring closure, isolated yield ([3]; from CC(C)(C)OC(=O)N[C@H]1CCCN[C@H]1COC1CCC(c2nccnc2OCC(=O)O)CC1, 13-membered ring, MeCN, 2.16 mM, 1.0 h)
60 µL/min/1e6 cells	0.90	7.3 ×10⁻⁶ cm/s	1.5	< 100 nM	C[C@H]1CN2CCC[C@H](NS(C)(=O)=O)C2COC2CCC(CC2)c2ccccc2O1 (some centres unmarked) [Compound 48]					
18 µL/min/1e6 cells	0.89	6.8 ×10⁻⁶ cm/s	2.2	> 1000 nM	C[C@H]1COc2ccccc2C2CCC(CC2)OCC2[C@@H](NS(C)(=O)=O)CCCN21 (some centres unmarked) [Compound 62]					
54 µL/min/1e6 cells	0.89	8.8 ×10⁻⁶ cm/s	1.4	100 to 1000 nM	[2H]C1([2H])COc2ccccc2C2CCC(CC2)OCC2[C@@H](NS(C)(=O)=O)CCCN21 (some centres unmarked) [Compound 60]					
16 µL/min/1e6 cells	0.70	1.2 ×10⁻⁶ cm/s	21	< 100 nM	[2H][C@@H]1[C@@H]2C[C@H]([2H])[C@@]([2H])(c3cc(F)cc(F)c3OCC(=O)N3CCC[C@H](NS(C)(=O)=O)C3CO2)[C@@H]1[2H] (some centres unmarked) [Compound 50]					
40 µL/min/1e6 cells	0.86	9.1 ×10⁻⁶ cm/s	0.75	> 1000 nM	C[C@@H]1COc2ccccc2C2CCC(CC2)OCC2[C@@H](NS(C)(=O)=O)CCCN21 (some centres unmarked) [Compound 63]					
